Data taken from paper PMC5750218, “Protein-inspired antibiotics active against vancomycin- and daptomycin-resistant bacteria” (Nature Communications, 2018).
≈ marks a conversion by molar mass, not a printed value. Where “and” joins values, the source holds several entries; their conditions need not be identical. Equal values may be shown once. Read-outs that look alike come from different tables or passages of the source.

Tests used:
Haemolysis assay = format: cell-based; settings: human
S. aureus ATCC 43300 = experiment: Membrane depolarisation assay (diSC3(5)); format: cell-based, Staphylococcus aureus; settings: 16 µg mL^−1, 30 min, MRSA ATCC 43300
Description: Antibiotic-induced bacterial cytoplasmic membrane depolarisation was determined using the fluorescent dye 3,3-dipropylthiacarbocyanine diSC3(5) (Sigma Aldrich, Australia) as previously described. Briefly, early exponential phase cells were pelleted and washed twice in 10 mM HEPES buffer (pH 7.4) containing 50 µg mL^−1 of CaCl2 and 5 mM Glucose, and then re-suspended in the same buffer (2 × 10^8 CFU mL^−1). diSC3(5) was added to a final concentration of 1.5 µM and incubated at room temperature in the dark to enable dye uptake and fluorescence quenching. After 30 min, cells were diluted 50-fold in assay buffer and 45 µL of cells were added to a 384-well black walled polystyrene plate (Corning, CLS3573) (Note: NBS plates were not employed, and no polysorbate-80 was added to avoid potential effects on membrane permeability, or interference with fluorescence as previously reported. The MICs of compounds in polystyrene plates are listed in Supplementary Table 12). Background data was collected before adding compounds using a Tecan Infinite® m1000 Pro Multi-mode reader (excitation/emission 612/665 nm) to ensure fluorescence quenching. Compounds were added to a final concentration of 16 µg mL^−1 and fluorescence was monitored for 30 min. Data were corrected by subtraction of background response (diSC3(5) in the presence of untreated cells, no compound). […] Each sample was tested in quadruplicate and independent assays were performed twice showing similar results. Data were analysed and presented using Prism software.

[1] = system: Bacillus subtilis ATCC 6633; experiment: microbe, parasite or virus in culture; format: cell-based; settings: for MIC: Bacillus subtilis; for Molar excess of Ac2Kaa ligand required to antagonise antibacterial activity: [ligand]/[antibiotic], B. subtilis ATCC 6633, 24 h
in vitro = settings: human, 50% human plasma (pooled, sodium heparin) in PBS, pH 7.4
Description: (§2) Briefly, test compounds (20 μM) were prepared from a 0.2 mM H2O stock solution (40 μL in 400 μL assay volume) except eucatropine, which was 300 μg mL^−1 in 100% DMSO (10 μL in 400 μL assay volume equivalent to 23 μM). The precipitating solution was prepared by adding 5 μL of 10 mM carbutamide in DMSO to 100 mL acetonitrile (final concentration: 135.5 ng mL^−1 or 0.5 μM carbutamide). The human plasma sample (pooled normal human plasma sodium heparin anticoagulant, 2 µL, Cat No.: [sequence], BioReclamation) and phosphate-buffer saline (PBS, pH 7.4 isotonic) were pre-heated at 37 °C for 30 min. 40 μL of test compounds (0.2 mM) were added to protein-low binding Eppendorf tubes, 160 μL of buffer was added, and the mixture was vortexed. For eucatropine, 10 μL of eucatropine (300 μg mL^−1) was added to a protein-low binding Eppendorf tube, 190 μL of buffer was added, and the mixture was vortexed. In each case, 200 μL of plasma was added and the resultant mixture vortexed. For the initial time point (reaction time t = 0 h), 50 μL of sample was immediately transferred into a protein-low binding Eppendorf tube and quenched with 150 μL of the ice-cold precipitating solution, followed by vortexing and subsequent storage at 4 °C. For the remaining time points, the plasma solution was incubated and shaken (150 rpm) at 37 °C. 50 μL aliquots were collected at time points of 0, 1, 3, 6 and 24 h and quenched with 150 μL the ice-cold precipitating solution. All samples were placed in a 4 °C fridge for 30 min then centrifuged at 14,000 × g for 8 min at 4 °C. The supernatant (100 μL) was transferred to a glass vial insert and stored at 4 °C until LC-MS/MS analysis. The percentage of test compounds remaining at the individual time points relative to sample at time point 0 h were reported.

[2] = 37 °C, 20 µM
Description: as §2

[3] = system: Methicillin-resistant S. aureus ATCC 43300; experiment: microbe, parasite or virus in culture; settings: for MIC: Staphylococcus aureus
Method in brief: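 Growth inhibition measured by broth microdilution (MHB, 37 °C, 24 h incubation). MIC defined visually as the lowest inhibitory concentration.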

[4] = system: S. aureus ATCC 43300 MRSA; experiment: microbe, parasite or virus in culture; format: cell-based, Staphylococcus aureus; settings: for MIC: Staphylococcus aureus, 24 h
Description: (§1) The compounds, along with standard antibiotics were serially diluted twofold across the wells of 96-well non-binding surface (NBS) polystyrene plates (Corning 3641). […] Standards ranged from 64 to 0.03 µg mL^−1 and compounds from 8 to 0.003 µg mL^−1 with final assay volumes of 100 µL per well. Gram-positive bacteria were cultured in Mueller Hinton broth (MHB) (Bactolaboratories, Cat. no. 211443) at 37 °C overnight. A sample of each culture was then diluted 40-fold in fresh MHB and incubated at 37 °C for 2–3 h. The resultant mid-log phase cultures were added to the compound-containing 96-well plates to give a final cell density of 5 × 10^5 colony forming unit (CFU) mL^−1. All the plates were covered and incubated at 37 °C for 24 h. MICs were the lowest concentration showing no visible growth.

S. pneumoniae ATCC 33400 = experiment: microbe, parasite or virus in culture; format: cell-based, Streptococcus pneumoniae; settings: for MIC: Streptococcus pneumoniae, ATCC33400, 24 h
Description: as §1

[5] = system: S. pneumoniae ATCC 700677 MDR; experiment: microbe, parasite or virus in culture; format: cell-based, Streptococcus pneumoniae; settings: for MIC: Streptococcus pneumoniae, ATCC700677, 24 h
Description: as §1

## CN[C@H](CC(C)C)C(=O)N[C@H]1C(=O)N[C@@H](CC(N)=O)C(=O)N[C@H]2C(=O)N[C@H]3C(=O)N[C@H](C(=O)N[C@H](C(=O)O)c4cc(O)cc(O)c4-c4cc3ccc4O)[C@H](O)c3ccc(c(Cl)c3)Oc3cc2cc(c3O[C@@H]2O[C@H](CO)[C@@H](O)[C@H](O)[C@H]2O[C@H]2C[C@](C)(N)[C@H](O)[C@H](C)O2)Oc2ccc(cc2Cl)[C@H]1O [Compound 1, Vancomycin]
Haemolysis assay; 25 µg mL-1, read-out: % Human Whole Blood Haemolysis
  hemolysis at 3 h, 25 µg mL-1: 0.1%
Haemolysis assay; 50 µg mL-1, read-out: % Human Whole Blood Haemolysis
  hemolysis at 3 h, 50 µg mL-1: 0.4%
Haemolysis assay; 100 µg mL-1, read-out: % Human Whole Blood Haemolysis
  hemolysis at 3 h, 100 µg mL-1: 0.3%
Haemolysis assay; 200 µg mL-1, read-out: % Human Whole Blood Haemolysis
  hemolysis at 3 h, 200 µg mL-1: 0.8%
Haemolysis assay; 400 µg mL-1, read-out: % Human Whole Blood Haemolysis
  hemolysis at 3 h, 400 µg mL-1: 0.8%
Haemolysis assay; 800 µg mL-1, read-out: % Human Whole Blood Haemolysis
  hemolysis at 3 h, 800 µg mL-1: 0.8%
Haemolysis assay; 1600 µg mL-1, read-out: % Human Whole Blood Haemolysis
  hemolysis at 3 h, 1600 µg mL-1: 1.5%
S. aureus ATCC 43300
  Dissipation of membrane potential (diSC3(5) fluorescence): no effect
[1]; ATCC6633
  MIC: 0.25 µg/mL (≈ 0.173 µM)
[1]; ATCC6633, read-out: Ac2Kaa concentration required to neutralise MIC activity
  MIC: 6.25 µg/mL (≈ 4.31 µM)
[1]
  Molar excess of Ac2Kaa ligand required to antagonise antibacterial activity: 100
[1]; listed as Vancomycin 1
  Molar excess of Ac2Kaa ligand required to antagonise antibacterial activity: 96
In vitro
  remaining at 1 h, 20 µM: 100%
  remaining at 3 h, 20 µM: 87%
  remaining at 6 h, 20 µM: 91%
  remaining at 24 h, 20 µM: 63%
[2]
  % compound remaining after incubation in 50% human plasma, 0h: 100%
[3]; ATCC43300|MRSA, 24 h, read-out: MIC MRSA, S. aureus ATCC 43300, NBS plates, MHB, 24 h, substance alone
  MIC: 1 µg/mL (≈ 0.69 µM)
[3]; ATCC43300|MRSA, read-out: MIC S. aureus ATCC 43300 MRSA, NBS, non-binding surface plate
  MIC: 1 µg/mL (≈ 0.69 µM)
[3]; ATCC43300|MRSA, read-out: MIC S. aureus ATCC 43300 MRSA, PP, polypropylene plate
  MIC: 2 µg/mL (≈ 1.38 µM)
[3]; ATCC43300|MRSA, read-out: MIC S. aureus ATCC 43300 MRSA, PS+P-80, polystyrene plate with 0.002% polysorbate-80
  MIC: 2 µg/mL (≈ 1.38 µM)
[3]; ATCC43300|MRSA, read-out: MIC S. aureus ATCC 43300 MRSA, PS, polystyrene plate, no polysorbate-80
  MIC: 2 µg/mL (≈ 1.38 µM)
[4]; read-out: MIC S. aureus ATCC 43300 MRSA, 1% Survanta
  MIC: 0.5 µg/mL (≈ 0.345 µM)
[4]; read-out: MIC S. aureus ATCC 43300 MRSA, 5% Survanta
  MIC: 0.5 µg/mL (≈ 0.345 µM)
[4]; read-out: MIC S. aureus ATCC 43300 MRSA, no added Survanta
  MIC: 0.5 µg/mL (≈ 0.345 µM)
S. pneumoniae ATCC 33400; read-out: MIC S. pneumoniae ATCC 33400, 1% Survanta
  MIC: 0.5 µg/mL (≈ 0.345 µM)
S. pneumoniae ATCC 33400; read-out: MIC S. pneumoniae ATCC 33400, 5% Survanta
  MIC: 0.5 µg/mL (≈ 0.345 µM)
S. pneumoniae ATCC 33400; read-out: MIC S. pneumoniae ATCC 33400, no added Survanta
  MIC: 0.5 µg/mL (≈ 0.345 µM)
[5]; read-out: MIC S. pneumoniae ATCC 700677 MDR, 1% Survanta
  MIC: 0.5 µg/mL (≈ 0.345 µM)
[5]; read-out: MIC S. pneumoniae ATCC 700677 MDR, 5% Survanta
  MIC: 0.5 µg/mL (≈ 0.345 µM)
[5]; read-out: MIC S. pneumoniae ATCC 700677 MDR, no added Survanta
  MIC: 0.5 µg/mL (≈ 0.345 µM)

## CN[C@H]1C(=O)N[C@@H]2Cc3ccc(cc3)Oc3cc4cc(c3O[C@@H]3O[C@H](C(=O)O)[C@@H](O)[C@H](O)[C@H]3NC(=O)CCCCCCCCC(C)C)Oc3ccc(cc3Cl)[C@@H](O)[C@@H]3NC(=O)[C@H](NC(=O)[C@@H]4NC(=O)[C@@H](NC2=O)c2cc(cc(O)c2Cl)Oc2cc1ccc2O)c1ccc(O)c(c1)-c1c(O[C@H]2O[C@H](CO)[C@@H](O)[C@H](O)[C@@H]2O)cc(O)cc1[C@@H](C(=O)NCCCN(C)C)NC3=O [Compound 3, Dalbavancin]
S. aureus ATCC 43300
  Dissipation of membrane potential (diSC3(5) fluorescence): no effect
[3]; S. aureus ATCC 43300, NBS plates, MHB, 24 h, substance alone
  MIC MRSA: 0.06 µg/mL and 0.03 µg/mL
[3]; non-binding surface plate
  MIC S. aureus ATCC 43300 MRSA, NBS: ≤ 0.016 µg/mL
[3]; polypropylene plate
  MIC S. aureus ATCC 43300 MRSA, PP: 0.063 µg/mL (≈ 0.0347 µM)
[3]; polystyrene plate with 0.002% polysorbate-80
  MIC S. aureus ATCC 43300 MRSA, PS+P-80: ≤ 0.016 µg/mL
[3]; polystyrene plate, no polysorbate-80
  MIC S. aureus ATCC 43300 MRSA, PS: 0.25 µg/mL (≈ 0.138 µM)
[4]; 1% Survanta
  MIC S. aureus ATCC 43300 MRSA: 0.06 µg/mL (≈ 0.033 µM)
[4]; 5% Survanta
  MIC S. aureus ATCC 43300 MRSA: 0.125 µg/mL (≈ 0.0688 µM)
S. pneumoniae ATCC 33400; 1% Survanta
  MIC S. pneumoniae ATCC 33400: 0.06 µg/mL (≈ 0.033 µM)
S. pneumoniae ATCC 33400; 5% Survanta
  MIC S. pneumoniae ATCC 33400: 0.125 µg/mL (≈ 0.0688 µM)
S. pneumoniae ATCC 33400; no added Survanta
  MIC S. pneumoniae ATCC 33400: 0.06 µg/mL (≈ 0.033 µM)
[5]; 1% Survanta
  MIC S. pneumoniae ATCC 700677 MDR: 0.06 µg/mL (≈ 0.033 µM)
[5]; no added Survanta
  MIC S. pneumoniae ATCC 700677 MDR: 0.06 µg/mL (≈ 0.033 µM)

## CCCCCCCCCC(=O)N[C@@H](Cc1c[nH]c2ccccc12)C(=O)N[C@H](CC(N)=O)C(=O)N[C@@H](CC(=O)O)C(=O)N[C@@H]1C(=O)NCC(=O)N[C@@H](CCCN)C(=O)N[C@@H](CC(=O)O)C(=O)N[C@H](C)C(=O)N[C@@H](CC(=O)O)C(=O)NCC(=O)N[C@H](CO)C(=O)N[C@@H]([C@H](C)CC(=O)O)C(=O)N[C@@H](CC(=O)c2ccccc2N)C(=O)O[C@@H]1C [Compound 4, Daptomycin]
Haemolysis assay; % Human Whole Blood Haemolysis
  hemolysis at 3 h, 25 µg mL-1: 0%
  hemolysis at 3 h, 50 µg mL-1: 0.4%
  hemolysis at 3 h, 100 µg mL-1: 0%
  hemolysis at 3 h, 200 µg mL-1: 0.3%
  hemolysis at 3 h, 400 µg mL-1: 0.9%
  hemolysis at 3 h, 800 µg mL-1: 0.3%
  hemolysis at 3 h, 1600 µg mL-1: 1.6%
S. aureus ATCC 43300
  Dissipation of membrane potential (diSC3(5) fluorescence): no effect
[3]; ATCC43300 / MRSA, 24 h, read-out: MIC MRSA
  MIC: 2 µg/mL (≈ 1.23 µM)
[3]; ATCC43300|MRSA, read-out: MIC S. aureus ATCC 43300 MRSA, NBS
  MIC: 1 µg/mL (≈ 0.617 µM)
[3]; ATCC43300|MRSA, read-out: MIC S. aureus ATCC 43300 MRSA, PP
  MIC: 1 µg/mL (≈ 0.617 µM)
[3]; ATCC43300|MRSA, read-out: MIC S. aureus ATCC 43300 MRSA, PS
  MIC: 1 µg/mL (≈ 0.617 µM)
[3]; ATCC43300|MRSA, read-out: MIC S. aureus ATCC 43300 MRSA, PS+P-80
  MIC: 1 µg/mL (≈ 0.617 µM)
[4]; 1% Survanta, read-out: MIC S. aureus ATCC 43300 MRSA
  MIC: > 8 µg/mL
[4]; 5% Survanta, read-out: MIC S. aureus ATCC 43300 MRSA
  MIC: > 8 µg/mL
[4]; no added Survanta, read-out: MIC S. aureus ATCC 43300 MRSA
  MIC: 2 µg/mL (≈ 1.23 µM)
S. pneumoniae ATCC 33400; 1% Survanta, read-out: MIC S. pneumoniae ATCC 33400
  MIC: > 8 µg/mL
S. pneumoniae ATCC 33400; 5% Survanta, read-out: MIC S. pneumoniae ATCC 33400
  MIC: > 8 µg/mL
S. pneumoniae ATCC 33400; no added Survanta, read-out: MIC S. pneumoniae ATCC 33400
  MIC: 2 to 4 µg/mL (≈ 1.23 to 2.47 µM)
[5]; 1% Survanta, read-out: MIC S. pneumoniae ATCC 700677 MDR
  MIC: > 8 µg/mL
[5]; 5% Survanta, read-out: MIC S. pneumoniae ATCC 700677 MDR
  MIC: > 8 µg/mL
[5]; no added Survanta, read-out: MIC S. pneumoniae ATCC 700677 MDR
  MIC: 4 µg/mL (≈ 2.47 µM)
